Data as given in article PMC9725750, “The clinical pharmacology of tafenoquine in the radical cure of Plasmodium vivax malaria: An individual patient data meta-analysis” (eLife, 2022).

What was measured:
blood MetHb = assay: Blood methaemoglobin (MetHb) concentration on day 7 by pulse CO-oximeter; type: in vivo, human
From the text: All patients in the phase 1 trial and the three efficacy trials had frequent blood MetHb measurements taken using non-invasive signal extraction pulse CO-oximeter handheld machines. For the three efficacy trials, we excluded measurements taken at or after recurrence of vivax malaria. Because erroneous readings from the handheld oximeters can occur, we inspected visually the longitudinal MetHb curves for each patient. […] All patients from this site were excluded from the MetHb analysis ( n =91), resulting in a total of 9632 MetHb measurements across 746 P. vivax infected patients and 72 healthy volunteers.

Plasmodium vivax = assay: Radical cure efficacy: any P. vivax recurrence within 4 months in patients, pooled DETECTIVE part 1/2 and GATHER (logistic regression and Emax models); type: in vivo, human
From the text: The primary endpoint for the main efficacy analyses was any P. vivax recurrence within 4 months. We chose the binary endpoint of any recurrence rather than the time to first recurrence because tafenoquine has both asexual stage antimalarial activity ([Fukuda et al., 2017]) and hypnozoiticidal activity. […] The choice of a particular cut-off for follow-up is thus a trade-off between sensitivity and specificity. Longer follow-up will increase the sensitivity of the endpoint (include more relapses) but decrease specificity (include more reinfections).
For all predictors we fitted Bayesian mixed effects logistic regression models (random intercepts for study and study site), with adjustment for day 0 parasitaemia (log transformed). Logistic regression allows inference of the odds-ratio for recurrence for the predictive variable of interest, assuming a linear relationship between the predictive variable and log-odds for recurrence.
For the mg/kg dose (the primary predictor of interest), the dose-response relationship was then assessed under a Bayesian Emax model, where the dose-dependent logit probability of recurrence is defined as: Emax(d,x)=α+βx+δd^k/d^k+γ^k,
The Emax model was also fitted with random intercepts for study and study site.
To determine the main predictors of recurrence, we fitted a multivariable penalised Bayesian logistic regression model. This included the following variables as predictors: the tafenoquine mg/kg dose; the plasma tafenoquine AUC[0,∞); the plasma tafenoquine Cmax; the day 7 MetHb concentration (%); the terminal elimination half-life t1/2; and the baseline parasite density. The model included random intercept terms for each study and study site. […] To avoid convergence issues resulting from the co-linearity of the predictors, the prior on all non-hierarchical coefficients was set to a Normal(0,0.5). This prior effectively shrinks the regression coefficients towards zero. It can be interpreted as follows: plausible odds-ratios for recurrence for one standard deviation change for each of the fixed effect predictors lie approximately between 0.38 and 2.7).
In a priori sensitivity analyses, all recurrences up until 6 months were included as both binary and time to event outcomes. The time to first recurrence was defined as a P. vivax episode between day 7 and day 180 with right censoring at the last recorded visit. We also re-ran the same models in patients who received a 300 mg single dose of tafenoquine only (i.e. the current recommended treatment).

[1] = no reference given; cited from earlier work

CCCCN(CCCC)CC(O)c1cc(Cl)cc2c1-c1ccc(Cl)cc1/C2=C/c1ccc(Cl)cc1 (stereo not drawn) [lumefantrine]
reduction in day 7 methaemoglobin per ten-fold increase in day 7 plasma lumefantrine concentration (blood MetHb; healthy volunteers randomised to tafenoquine + AL, 95% CI 3 to 62%): 40%

COc1cc(NC(C)CCCN)c2ncccc2c1 (stereo not drawn) [primaquine]
posterior probability that the recurrence was more likely following primaquine (Plasmodium vivax; 3.5 mg/kg primaquine vs 5 mg/kg tafenoquine): 0.73 | Recurrence at 4 months (Plasmodium vivax; PQ low-dose 15 mg base daily for 14 days + chloroquine, n=257): 57 (22.2) total number (%) | mean probability of recurrence at 4 months (Plasmodium vivax; logistic model estimate, following 3.5 mg/kg primaquine, 95% CI 0.10–0.26): 0.17 | terminal elimination half-life [1]: 5 h

Clc1ccc2c(N3CCN(CCCN4CCN(c5ccnc6cc(Cl)ccc56)CC4)CC3)ccnc2c1 [piperaquine]
association of day 7 piperaquine concentration with day 7 MetHb (reduction) (blood MetHb; healthy volunteers, tafenoquine + DHA-PQP, no clear association, 95% CI –27 to 72%): 40%
